34 compounds from patent US7491827B2, “Aryl sulfonamides useful as inhibitors of chemokine receptor activity” (Millennium Pharmaceuticals, Inc., priority 2003, dated 2009) can be followed below.

In general, Ki refers to the dissociation constant of the complex between target and ligand, obtained from inhibition or displacement.

Read-outs that look alike come from different tables or passages of the source. A value given as a limit tells only on which side of the number the result lay.

The test concerns the target T1, cloned human CCR8 receptor stably expressed in L1.2 cells (Homo sapiens, UniProt P51685).
T1 construct: expressed in transfected cells
In words: whole cell binding screen: inhibition of biotinylated human I309 binding to CCR8 (FMAT 8100 HTS). Conditions: biotinylated human I-309, 10 point concentration response starting at 10 μM. The method, boiled down: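 Ten-point dilutions, top 10 μM final, were tested for displacing biotin-I309 from hCCR8-transfected L1.2 cells in HEPES-buffered HBSS with BSA and sodium azide, mixing 0.5 h before FMAT 8100 detection. Signals converted to percent inhibition against untreated wells and a 100 nM excess unlabeled I309 control.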

[1] abbreviates: L1.2/hCCR8 cells, read-out: Ki of compounds to inhibit I-309 binding to CCR8.
The mark [2] stands for this setting: Ki of compounds to inhibit I-309 binding to CCR8, L1.2/hCCR8 cells.

T1 sequence (P51685 whole entry): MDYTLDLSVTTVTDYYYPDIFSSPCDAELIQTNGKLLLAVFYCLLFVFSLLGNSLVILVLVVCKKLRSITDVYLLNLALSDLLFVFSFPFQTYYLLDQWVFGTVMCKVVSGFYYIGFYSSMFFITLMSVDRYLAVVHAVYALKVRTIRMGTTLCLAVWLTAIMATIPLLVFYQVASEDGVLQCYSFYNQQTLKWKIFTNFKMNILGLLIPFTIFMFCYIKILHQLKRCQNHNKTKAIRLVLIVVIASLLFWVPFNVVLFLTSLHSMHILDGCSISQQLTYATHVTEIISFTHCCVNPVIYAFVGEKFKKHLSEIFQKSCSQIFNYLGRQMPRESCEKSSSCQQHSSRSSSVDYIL

On to `CN1CCCC(C(=O)Nc2ccc(S(=O)(=O)NC3CCN(C(=O)OC(C)(C)C)CC3)c3ccccc23)C1` (stereo not shown) [Compound B-23], for which the Ki under setting [1] was under 30000 nM.

Turning to `CCOC(=O)N1CCC(NS(=O)(=O)c2ccc(CNCc3ccoc3)c3ccccc23)CC1` [Compound G-14, 4-(4-{[(Furan-3-ylmethyl)-amino]-methyl}-naphthalene-1-sulfonylamino)-piperidine-1-carboxylic acid ethyl ester], the Ki under setting [1] is under 500 nM.

`CCN(CC)C(=O)N1CCC(NS(=O)(=O)c2ccc(NC(=O)c3ccccc3C)c3c2CCCC3)CC1` [Compound E-14, 4-[4-(2-Methyl-benzoylamino)-5,6,7,8-tetrahydro-naphthalene-1-sulfonylamino]-piperidine-1-carboxylic acid diethylamide]: under setting [1], the Ki was under 1000 nM.

Regarding `CN(C)CCNS(=O)(=O)c1ccc(NC(=O)c2ccccc2)c2ccccc12` [Compound A-9, N-[4-(2-Dimethylamino-ethylsulfamoyl)-naphthalen-1-yl]-benzamide], under setting [1], the Ki was under 30000 nM.

For the compound `CN1CCC(C(=O)Nc2ccc(S(=O)(=O)NC3CCN(C(=O)OC(C)(C)C)CC3)c3ccccc23)CC1` [Compound B-21, 4-{4-[(1-Methyl-piperidine-4-carbonyl)-amino]-naphthalene-1-sulfonylamino}-piperidine-1-carboxylic acid tert-butyl ester], under setting [1], the Ki is under 30000 nM.

Consider `Cc1ccccc1C(=O)Nc1ccc(S(=O)(=O)NC2CCNCC2)c2ccccc12` [Compound C-36, 2-Methyl-N-[4-(piperidin-4-ylsulfamoyl)-naphthalen-1-yl]-benzamide], for which, under setting [1], the Ki is under 500 nM.

As for `Cc1ccccc1C(=O)Nc1ccc(S(=O)(=O)N[C@@H]2CCNC[C@H]2C)c2ccccc12` [Compound J-54], the Ki under setting [1] was under 5000 nM.

Consider `Cc1ccccc1C(=O)Nc1ccc(S(=O)(=O)N[C@@H]2CCN(C(=O)CN3CCCC3)C[C@@H]2C)c2ccccc12` (racemic) [Compound C-142, (±)-2-Methyl-N-{4-[cis-3-methyl-1-(2-pyrrolidin-1-yl-acetyl)-piperidin-4-ylsulfamoyl]-naphthalen-1-yl}-benzamide], for which the Ki under setting [1] is under 500 nM.

On to `O=C(Nc1cccc2c(S(=O)(=O)NC3CCN(C(=O)N4CCOCC4)CC3)cccc12)c1ccccc1` [Compound H-10], for which, under setting [1], the Ki was under 500 nM.

For the compound `CCOC(=O)[C@@H]1CN(Cc2ccccc2)CC[C@H]1NS(=O)(=O)c1ccc(NC(=O)c2ccccc2C)c2ccccc12` (racemic) [Compound A-48, (±)-(trans)-1-Benzyl-4-[4-(2-methyl-benzoylamino)-naphthalene-1-sulfonylamino]-piperidine-3-carboxylic acid ethyl ester], the inhibition constant Ki under setting [1] is under 30000 nM.

As for `O=C(Nc1ccc(S(=O)(=O)Nc2ccc(C(F)(F)F)cc2)c2ccccc12)c1ccccc1` [Compound A-30, N-[4-(4-Trifluoromethyl-phenylsulfamoyl)-naphthalen-1-yl]-benzamide], under setting [1], the Ki was under 30000 nM.

As to `CCOC(=O)N1CCC(C)(NS(=O)(=O)c2ccc(NC(=O)c3ccccc3C)c3ccccc23)CC1` [Compound C-25, 4-Methyl-4-[4-(2-methyl-benzoylamino)-naphthalene-1-sulfonylamino]-piperidine-1-carboxylic acid ethyl ester], under setting [1], the Ki was under 500 nM.

Turning to `CC(C)(C)OC(=O)N1CCC(NS(=O)(=O)c2ccc(C(=O)NC3CCCCC3)c3ccccc23)CC1` [Compound F-1, 4-(4-Cyclohexylcarbamoyl-naphthalene-1-sulfonylamino)-piperidine-1-carboxylic acid tert-butyl ester], under setting [1], the Ki is under 1000 nM.

For the compound `CCOC(=O)N1CCC(NS(=O)(=O)c2ccc(CNCc3ccc(Cl)cc3)c3ccccc23)CC1` [Compound G-7, 4-{4-[(4-Chloro-benzylamino)-methyl]-naphthalene-1-sulfonylamino}-piperidine-1-carboxylic acid ethyl ester], the Ki under setting [1] is under 500 nM.

Under setting [2], `CCNC(=O)N1CCC(NS(=O)(=O)c2ccc(NC(=O)c3ccccc3C)c3ccccc23)CC1` [Compound C-34, 4-[4-(2-Methyl-benzoylamino)-naphthalene-1-sulfonylamino]-piperidine-1-carboxylic acid ethylamide] registered an inhibition constant (Ki) of under 500 nM.

On to `Cc1ccccc1C(=O)Nc1ccc(S(=O)(=O)NC2[C@@H](C)CN(Cc3ccccc3)C[C@@H]2C)c2ccccc12` (racemic) [Compound A-45, (±)-(cis, trans)-N-[4-(1-Benzyl-3,5-dimethyl-piperidin-4-ylsulfamoyl)-naphthalen-1-yl]-2-methyl-benzamide], for which, under setting [1], the Ki is under 30000 nM.

Regarding `CCCC(=O)N1CCC(NS(=O)(=O)c2ccc(NC(=O)c3ccccc3C)c3ccccc23)CC1` [Compound C-35, N-[4-(1-Butyryl-piperidin-4-ylsulfamoyl)-naphthalen-1-yl]-2-methyl-benzamide], the Ki under setting [2] was under 500 nM.

As for `CCCC(=O)N1CCC(NS(=O)(=O)c2ccc(C(=O)NC3CCOCC3)c3ccccc23)CC1` [Compound F-24, 4-(1-Butyryl-piperidin-4-ylsulfamoyl)-naphthalene-1-carboxylic acid (tetrahydro-pyran-4-yl)-amide], under setting [1], the inhibitory constant (Ki) is under 1000 nM.

Consider `Cc1ccccc1C(=O)Nc1ccc(S(=O)(=O)NC2CCNCC2(C)C)c2ccccc12` (racemic) [Compound C-11, (±)-N-[4-(3,3-Dimethyl-piperidin-4-ylsulfamoyl)-naphthalen-1-yl]-2-methyl-benzamide], for which the Ki under setting [1] was under 500 nM.

As to `CCOC(=O)N1CCC(NS(=O)(=O)c2cccc3c(C(=O)Nc4cccc(C)c4)cccc23)CC1` [Compound H-41, 4-(5-m-Tolylcarbamoyl-naphthalene-1-sulfonylamino)-piperidine-1-carboxylic acid ethyl ester], under setting [1], the Ki was under 30000 nM.

Take `Cc1ccccc1C(=O)Nc1ccc(S(=O)(=O)NC2CCCN(C(=O)N(C)C)C2)c2c1CCCC2` (racemic) [Compound E-30, (±)-3-[4-(2-Methyl-benzoylamino)-5,6,7,8-tetrahydro-naphthalene-1-sulfonylamino]-piperidine-1-carboxylic acid dimethylamide]: under setting [1], the inhibition constant Ki is under 500 nM.

Regarding `CCOC(=O)N1CCC(NS(=O)(=O)c2cccc3c(NC(=O)c4ccccc4C)cccc23)CC1` [Compound H-12, 4-[5-(2-Methyl-benzoylamino)-naphthalene-1-sulfonylamino]-piperidine-1-carboxylic acid ethyl ester], the Ki under setting [1] was under 1000 nM.

Under setting [2], `CNC(=O)N1CCC(NS(=O)(=O)c2ccc(NC(=O)c3ccccc3C)c3ccccc23)CC1` [Compound C-41, 4-[4-(2-Methyl-benzoylamino)-naphthalene-1-sulfonylamino]-piperidine-1-carboxylic acid methylamide] had a Ki of under 500 nM.

Consider `Cc1ccccc1C(=O)Nc1ccc(S(=O)(=O)NC2CCN(c3ncccn3)CC2)c2ccccc12` [Compound C-57, 2-Methyl-N-[4-(1-pyrimidin-2-yl-piperidin-4-ylsulfamoyl)-naphthalen-1-yl]-benzamide], for which, under setting [1], the Ki is under 500 nM.

In the case of `CC(C)(C)OC(=O)N1CCC(NS(=O)(=O)c2ccc(C(=O)NC3CCOCC3)c3ccccc23)CC1` [Compound F-15, 4-[4-(Tetrahydro-pyran-4-ylcarbamoyl)-naphthalene-1-sulfonylamino]-piperidine-1-carboxylic acid tert-butyl ester], the Ki under setting [1] is under 30000 nM.

As for `CCOC(=O)N1CCC(NS(=O)(=O)c2cccc3c(C(=O)Nc4ccccc4Cl)cccc23)CC1` [Compound H-34, 4-[5-(2-chloro-phenylcarbamoyl)-naphthalene-1-sulfonylamino]-piperidine-1-carboxylic acid ethyl ester], the Ki under setting [1] was under 500 nM.

Consider `CCCC(=O)N1CCC(NS(=O)(=O)c2cccc3c(C(=O)NC4CCCCC4C)cccc23)CC1` (racemic) [Compound H-29, (±)-5-(1-Butyryl-piperidin-4-ylsulfamoyl)-naphthalene-1-carboxylic acid (2-methyl-cyclohexyl)-amide], for which the Ki under setting [1] was under 500 nM.

As to `CCc1ccc(NS(=O)(=O)c2ccc(NC(=O)c3ccccc3)c3ccccc23)cc1` [Compound A-26, N-[4-(4-Ethyl-phenylsulfamoyl)-naphthalen-1-yl]-benzamide], the Ki under setting [1] was under 500 nM.

Consider `CCCC(=O)N1CCC(NS(=O)(=O)c2ccc(NC(=O)C3CCCN(C)C3)c3ccccc23)CC1` [Compound D-23, 1-Methyl-piperidine-3-carboxylic acid [4-(1-butyryl-piperidin-4-ylsulfamoyl)-naphthalen-1-yl]-ainde], for which the Ki under setting [1] was under 30000 nM.

With `CCOC(=O)N1CCC(NS(=O)(=O)c2ccc(NC(=O)c3cccc(C)c3C)c3ccccc23)CC1` [Compound B-27], under setting [1], the Ki was under 500 nM.

As for `Cc1ccccc1C(=O)Nc1ccc(S(=O)(=O)NC2CCCNC2)c2ccccc12` (racemic) [Compound C-112, (±)-2-Methyl-N-[4-(piperidin-3-ylsulfamoyl)-naphthalen-1-yl]-benzamide], under setting [1], the Ki was under 1000 nM.

Turning to `CCOC(=O)N1CCC(NS(=O)(=O)c2cccc3c(CNCc4ccc(Cl)cc4)cccc23)CC1` [Compound H-45, 4-{5-[(4-Chloro-benzylamino)-methyl]-naphthalene-1-sulfonylamino}-piperidine-1-carboxylic acid ethyl ester], the Ki under setting [1] is under 500 nM.

Take `Cc1ccccc1C(=O)Nc1ccc(S(=O)(=O)NC2CCN(C(=O)OC(C)C)CC2)c2c1CCCC2` [Compound E-16, 4-[4-(2-Methyl-benzoylamino)-5,6,7,8-tetrahydro-naphthalene-1-sulfonylamino]-piperidine-1-carboxylic acid isopropyl ester]: the inhibition constant Ki under setting [1] is under 500 nM.

For `CCOC(=O)N1CCC(NS(=O)(=O)c2cccc3c(C(=O)NC4CCCC(C)C4C)cccc23)CC1` (racemic) [Compound H-30, (±)-4-[5-(2,3-Dimethyl-cyclohexylcarbamoyl)-naphthalene-1-sulfonylamino]-piperidine-1-carboxylic acid ethyl ester], the Ki under setting [1] was under 500 nM.
